Laboratory results reported in patent publication US11691951B2 (Curtana Pharmaceuticals, Inc., priority 2015, dated 2023).

test system: GBM8 cells (human glioblastoma neurosphere cell culture); assay: GBM8 viability assay (Cell Titer Glo luminescence, 3 days); type: cell-based; details: 72 h, 3 days incubation
Experimental: Example 283: GBM4 and GBM8 Viability Assay
Cell culture medium was prepared from a NSA proliferation kit (Neurocult) and NeuroCult supplements (Stemcell Tech Cat. #05751) and treated with 20 μL of 10 μg/mL rh EGF, 10 μL of 10 μg/mL rh bFGF and 10 μL of 0.2% Heparin. In this medium, human glioblastoma cells were cultured in ultra-low attachment tissue culture flasks until 1×10^6 cells ml was achieved (GBM4 and GBM8 are distinct neurosphere cell cultures derived from these human patient tissues). GBM4 and GBM8 cells were dissociated and 10 mL of media containing 4000 human glioblastoma cells per 90 uL were transferred to an ultra-low binding 96-well plate and incubated at 37° C. overnight. On the following day, 10 μL of a 1% DMSO solution of test compound in assay medium was added to wells containing the cell suspension and the mixture incubated at 37° C. for 3 days. At this time, the plate was removed from the incubator and allowed to reach room temperature. After about 30 minutes, 50 μL of Cell Titer Glo solution was added to each well and the plate shaken for 1 minute at low speed. After 10 minutes luminescence was recorded using a Tecan Safire2 reader.
Reduction in luminescence compared to DMSO only control wells was used to determine the percentage inhibition of cell growth. IC50s were calculated using the % inhibition of luminescence for serial dilutions of compounds fitted to a 4-parameter fit within the Prism (San Diego) curve fitting program.

Row | SMILES | IC50 [µM]
1 | Cc1cc(NCCOCCO)nc(NC(=O)Nc2cccc(C(F)(F)F)c2)n1 [Compound 183] | 1 to 10
2 | CNCCCN(C)c1cc(C)nc(NC(=O)Nc2ccc(C(F)(F)F)cc2)n1 [Compound 205] | 1 to 10
3 | Cc1cc(NCCN)nc(NC(=O)Nc2ccccc2)n1 [Compound 72, 1-(4-((2-aminoethyl)amino)-6-methylpyrimidin-2-yl)-3-phenylurea] | 1 to 10
4 | CCCNc1cc(C)nc(NC(=O)Nc2ccc3c(c2)OCCO3)n1 [Compound 296] | < 1
5 | Cc1ccc(NC(=O)Nc2nc(C)cc(NCCCCO)n2)cc1 [Compound 239] | < 1
6 | COc1cccc(NC(=O)Nc2nc(C)cc(NCC(O)CO)n2)c1 (centres unmarked) [Compound 151] | 1 to 10
7 | Cc1cc(NCC2CCCNC2)nc(NC(=O)Nc2ccc(Cl)c(Cl)c2)n1 (centres unmarked) [Compound 27] | < 1
8 | Cc1cc(NCC(O)CO)nc(NC(=O)Nc2ccccc2)n1 (centres unmarked) [Compound 78] | < 1
9 | Cc1cc(NCC(O)CO)nc(NC(=O)Nc2ccc(OC(F)(F)F)cc2)n1 (centres unmarked) [Compound 96] | < 1
10 | Cc1cc(NCCN(C)C)nc(NC(=O)Nc2cccc(C(F)(F)F)c2)n1 [Compound 189] | 1 to 10
11 | CNCCNc1cc(C)nc(NC(=O)Nc2ccc(F)c(C(F)(F)F)c2)n1 [Compound 120, 1-(4-fluoro-3-(trifluoromethyl)phenyl)-3-(4-methyl-6-((2-(methylamino)ethyl)amino)pyrimidin-2-yl)urea] | < 1
12 | Cc1cc(NCCN)nc(NC(=O)Nc2ccc(Cl)c(C(F)(F)F)c2)n1 [Compound 55] | < 1
13 | Cc1cc(NCCCCO)nc(NC(=O)Nc2ccc(Cl)c(Cl)c2)n1 [Compound 13] | < 1
14 | Cc1cc(NCCN(C)C)nc(NC(=O)Nc2ccc(F)c(Cl)c2)n1 [Compound 159] | 1 to 10
15 | Cc1cc(NCC(O)CO)nc(NC(=O)Nc2ccc(C)c(C)c2)n1 (centres unmarked) [Compound 264] | < 1
16 | CNCCCCNc1cc(C)nc(NC(=O)Nc2ccc(Cl)c(C(F)(F)F)c2)n1 [Compound 65] | < 1
17 | COc1ccc(NC(=O)Nc2nc(C)cc(NCCOCCO)n2)cc1 [Compound 132] | < 1
18 | Cc1cc(NCCCN)nc(NC(=O)Nc2ccc(OC(F)(F)F)cc2)n1 [Compound 89] | < 1
19 | CCNc1cc(C)nc(NC(=O)Nc2ccc(F)c(C(F)(F)F)c2)n1 [Compound 117] | < 1
20 | Cc1cc(NCC(O)CO)nc(NC(=O)Nc2cccc(C(F)(F)F)c2)n1 (centres unmarked) [Compound 187] | < 1
21 | Cc1cc(NCCN(C)C)nc(NC(=O)Nc2ccc(C(C)(C)C)cc2)n1 [Compound 302] | 1 to 10
22 | Cc1cc(NCCCN(C)C)nc(NC(=O)Nc2ccc(Cl)c(C(F)(F)F)c2)n1 [Compound 47, 1-(2-{3-[4-chloro-3-(trifluoromethyl)phenyl]ureido}-6-methyl-4-pyrimidinylamino)-3-(dimethylamino)propane] | < 1

Row | SMILES | IC50 [µM]
23 | Cc1cc(NCC(F)(F)CO)nc(NC(=O)Nc2ccc(Cl)c(C(F)(F)F)c2)n1 [Compound 53] | < 1
24 | COc1cccc(NC(=O)Nc2nc(C)cc(NCC(C)O)n2)c1 (centres unmarked) [Compound 147] | 1 to 10
25 | Cc1ccc(NC(=O)Nc2nc(C)cc(NCCCc3cnc[nH]3)n2)cc1 [Compound 243] | < 1
26 | COc1cccc(NC(=O)Nc2nc(C)cc(NCC3CCCNC3)n2)c1 (centres unmarked) [Compound 155] | 1 to 10
27 | CCNc1cc(C)nc(NC(=O)Nc2ccc3c(c2)OCO3)n1 [Compound 285] | < 1
28 | CC(=O)NCCCNc1cc(C)nc(NC(=O)Nc2ccc(Cl)c(Cl)c2)n1 [Compound 272, N-(3-((2-(3-(3,4-dichlorophenyl)ureido)-6-methylpyrimidin-4-yl)amino)propyl)acetamide] | 1 to 10
29 | CNCCNc1cc(C)nc(NC(=O)Nc2ccc(Cl)c(C(F)(F)F)c2)n1 [Compound 63, 1-(4-chloro-3-(trifluoromethyl)phenyl)-3-(4-methyl-6-((2-(methylamino)ethyl)amino)pyrimidin-2-yl)urea] | 1 to 10
30 | Cc1cc(NCCO)nc(NC(=O)Nc2ccc(Cl)c(C(F)(F)F)c2)n1 [Compound 49] | < 1
31 | Cc1cc(NCCN(C)C)nc(NC(=O)Nc2ccc(F)c(C(F)(F)F)c2)n1 [Compound 103, 1-(4-fluoro-3-(trifluoromethyl)phenyl)-3-(4-((2-(dimethylamino)ethyl)amino)-6-methylpyrimidin-2-yl)urea] | < 1
32 | COc1ccc(NC(=O)Nc2nc(C)cc(NCCNC(C)=O)n2)cc1 [Compound 276, N-(2-((2-(3-(4-methoxyphenyl)ureido)-6-methylpyrimidin-4-yl)amino)ethyl)acetamide] | < 1
33 | Cc1cc(NCC2CCCNC2)nc(NC(=O)Nc2ccc(C)c(C)c2)n1 (centres unmarked) [Compound 271] | < 1
34 | Cc1cc(NCCOCCO)nc(NC(=O)Nc2ccc(C(F)(F)F)cc2)n1 [Compound 199] | < 1
35 | Cc1cc(NCCCN(C)C)nc(NC(=O)Nc2ccccc2)n1 [Compound 69, 1-(4-((3-(dimethylamino)propyl)amino)-6-methylpyrimidin-2-yl)-3-phenylurea] | 1 to 10
36 | Cc1cc(NCCCN)nc(NC(=O)Nc2ccc3c(c2)OCCO3)n1 [Compound 292] | < 1
37 | CNCCNc1cc(C)nc(NC(=O)Nc2ccc(C)c(C)c2)n1 [Compound 268, 1-(3,4-dimethylphenyl)-3-(4-methyl-6-((2-(methylamino)ethyl)amino)pyrimidin-2-yl)urea] | 1 to 10
38 | Cc1cc(NCCOCCO)nc(NC(=O)Nc2ccc(F)c(C(F)(F)F)c2)n1 [Compound 107] | < 1
39 | Cc1cc(NCC2CCCNC2)nc(NC(=O)Nc2ccc(Cl)c(C(F)(F)F)c2)n1 (centres unmarked) [Compound 66] | < 1
40 | CNCCNc1cc(C)nc(NC(=O)Nc2ccc(OC(F)(F)F)cc2)n1 [Compound 98, 1-(4-methyl-6-((2-(methylamino)ethyl)amino)pyrimidin-2-yl)-3-(4-(trifluoromethoxy)phenyl)urea] | < 1
41 | Cc1cc(NCCCN)nc(NC(=O)Nc2ccccc2)n1 [Compound 75] | 1 to 10
42 | CCCNc1cc(C)nc(NC(=O)Nc2ccc(C(F)(F)F)cc2)n1 [Compound 202] | < 1
43 | Cc1cc(NCCCCO)nc(NC(=O)Nc2ccc(F)c(C(F)(F)F)c2)n1 [Compound 106] | < 1
44 | Cc1cc(NCCN)nc(NC(=O)Nc2ccc(F)c(Cl)c2)n1 [Compound 162] | < 1

Row | SMILES | IC50 [µM]
45 | CCCNc1cc(C)nc(NC(=O)Nc2cccc(C)c2)n1 [Compound 218] | < 1
46 | Cc1cc(NCCN(C)C)nc(NC(=O)Nc2ccc(OC(F)(F)F)cc2)n1 [Compound 88] | < 1
47 | Cc1cc(NCCCCN(C)C)nc(NC(=O)Nc2ccc(Cl)c(C(F)(F)F)c2)n1 [Compound 56] | 1 to 10
48 | Cc1cc(NCCN)nc(NC(=O)Nc2ccc3c(c2)OCO3)n1 [Compound 283] | < 1
49 | Cc1cc(NCCC(N)=O)nc(NC(=O)Nc2ccc(OC(F)(F)F)cc2)n1 [Compound 93] | < 1
50 | Cc1cc(NCCCCO)nc(NC(=O)Nc2cccc(C(F)(F)F)c2)n1 [Compound 181] | < 1
51 | Cc1ccc(NC(=O)Nc2nc(C)cc(NCCN(C)C)n2)cc1 [Compound 242] | 1 to 10
52 | Cc1cc(NC2CCNC2)nc(NC(=O)Nc2ccc(Cl)c(C(F)(F)F)c2)n1 (centres unmarked) [Compound 67] | < 1
53 | Cc1cc(NCCO)nc(NC(=O)Nc2ccc(F)c(C(F)(F)F)c2)n1 [Compound 105] | < 1
54 | CC(=O)NCCCNc1cc(C)nc(NC(=O)Nc2ccc3c(c2)OCCO3)n1 [Compound 308, N-(3-{2-[3-(2,3-dihydro-benzo[1,4]dioxin-6-yl)-ureido]-6-methyl-pyrimidin-4-ylamino}-propyl)-acetamide] | < 1
55 | Cc1cc(NCCN(C)C)nc(NC(=O)Nc2ccc(C(F)(F)F)cc2)n1 [Compound 203] | < 1
56 | Cc1cc(NCC(C)O)nc(NC(=O)Nc2ccc(C)c(C)c2)n1 (centres unmarked) [Compound 262] | < 1
57 | Cc1cc(NCCN)nc(NC(=O)Nc2ccc(C(C)(C)C)cc2)n1 [Compound 304] | < 1
58 | Cc1cc(NCCCN(C)C)nc(NC(=O)Nc2ccc(OC(F)(F)F)cc2)n1 [Compound 85, 1-(4-((3-(dimethylamino)propyl)amino)-6-methylpyrimidin-2-yl)-3-(4-(trifluoromethoxy)phenyl)urea] | < 1
59 | CC(=O)NCCCNc1cc(C)nc(NC(=O)Nc2ccc(OC(F)(F)F)cc2)n1 [Compound 273, N-(3-((6-methyl-2-(3-(4-(trifluoromethoxy)phenyl)ureido)pyrimidin-4-yl)amino)propyl)acetamide] | < 1
60 | Cc1cc(NCCCCN)nc(NC(=O)Nc2ccc(Cl)c(Cl)c2)n1 [Compound 15] | < 1
61 | Cc1cc(NCC(C)O)nc(NC(=O)Nc2ccc(C(F)(F)F)cc2)n1 (centres unmarked) [Compound 198] | < 1
62 | Cc1cc(NCCO)nc(NC(=O)Nc2cccc(C(F)(F)F)c2)n1 [Compound 184] | < 1
63 | COc1cccc(NC(=O)Nc2nc(C)cc(NCCCCN)n2)c1 [Compound 142] | 1 to 10
64 | COc1cccc(NC(=O)Nc2nc(C)cc(NCCCCN(C)C)n2)c1 [Compound 148] | 1 to 10
65 | CNCCNc1cc(C)nc(NC(=O)Nc2ccccc2)n1 [Compound 82, 1-(4-methyl-6-((2-(methylamino)ethyl)amino)pyrimidin-2-yl)-3-phenylurea] | 1 to 10
